Experimental data from the supplement of paper PMC8149375.

What was measured:
Conditions in all cases: treatment: drug alone; 5 days
769-P [1] = assay: GI50, drug alone; higher = less potent
Method: (§1)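 Primary HTS: 8 RCC cell lines treated with 8 doses (up to 10 uM) of each library drug alone for 5 days; viability read by CellTiter-Glo and normalised to DMSO. GI50 was fitted with XLfit (4-parameter), AUC is the area under the dose-response curve, and minimum viability is the lowest fraction of DMSO viability across doses.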

786-O [2] = assay: GI50, drug alone; higher = less potent
Method: as §1

A498 [3] = assay: GI50, drug alone; higher = less potent
Method: as §1

ACHN [4] = assay: GI50, drug alone; higher = less potent
Method: as §1

CAKI-1 [5] = assay: GI50, drug alone; higher = less potent
Method: as §1

SN12C [6] = assay: GI50, drug alone; higher = less potent
Method: as §1

TK-10 [7] = assay: GI50, drug alone; higher = less potent
Method: as §1

UO-31 [8] = assay: GI50, drug alone; higher = less potent
Method: as §1

769-P [9] = assay: minimum viability across doses, drug alone, relative to DMSO (fraction); higher = less growth inhibition
Method: as §1

786-O [10] = assay: as above
Method: as §1

A498 [11] = assay: as above
Method: as §1

ACHN [12] = assay: as above
Method: as §1

CAKI-1 [13] = assay: as above
Method: as §1

SN12C [14] = assay: as above
Method: as §1

TK-10 [15] = assay: as above
Method: as §1

UO-31 [16] = assay: as above
Method: as §1

769-P [17] = assay: AUC of dose-response viability curve, drug alone (arbitrary (AUC of normalised viability)); higher = less growth inhibition
Method: as §1

786-O [18] = assay: as above
Method: as §1

A498 [19] = assay: as above
Method: as §1

ACHN [20] = assay: as above
Method: as §1

CAKI-1 [21] = assay: as above
Method: as §1

SN12C [22] = assay: as above
Method: as §1

TK-10 [23] = assay: as above
Method: as §1

UO-31 [24] = assay: as above
Method: as §1

SMILES	GI50, drug alone (769-P [1]) [nM]	GI50, drug alone (786-O [2]) [nM]	GI50, drug alone (A498 [3]) [nM]	GI50, drug alone (ACHN [4]) [nM]	GI50, drug alone (CAKI-1 [5]) [nM]	GI50, drug alone (SN12C [6]) [nM]	GI50, drug alone (TK-10 [7]) [nM]	GI50, drug alone (UO-31 [8]) [nM]	minimum viability across doses (769-P [9])	minimum viability across doses (786-O [10])	minimum viability across doses (A498 [11])	minimum viability across doses (ACHN [12])	minimum viability across doses (CAKI-1 [13])	minimum viability across doses (SN12C [14])	minimum viability across doses (TK-10 [15])	minimum viability across doses (UO-31 [16])	AUC of dose-response viability curve (769-P [17])	AUC of dose-response viability curve (786-O [18])	AUC of dose-response viability curve (A498 [19])	AUC of dose-response viability curve (ACHN [20])	AUC of dose-response viability curve (CAKI-1 [21])	AUC of dose-response viability curve (SN12C [22])	AUC of dose-response viability curve (TK-10 [23])	AUC of dose-response viability curve (UO-31 [24])
Cc1cc2c(C(C)C)c(O)c(O)c(C=O)c2c(O)c1-c1c(C)cc2c(C(C)C)c(O)c(O)c(C=O)c2c1O [AT101]	> 10000	> 10000	> 10000	5950	6050	> 10000	> 10000	> 10000	0.779	0.212	0.836	0.2	0.121	0.741	0.542	0.778	3.66	1.66	3.74	3.02	3.35	3.2	2.36	3.8
O=C(NC1CCNCC1)c1n[nH]cc1NC(=O)c1c(Cl)cccc1Cl [AT7519]	1910	375	455	946	900	431	1040	415	0.0237	0.00447	0.00986	0.00881	0.0613	0.0108	0.182	0.00638	2.78	2.23	2.45	2.35	2.23	2.14	2.32	3.04
Clc1ccc(C2(c3ccc(-c4cn[nH]c4)cc3)CCNCC2)cc1 [AT7867]	6560	1110	7630	2570	4090	5460	3730	249	0.338	0.00712	0.263	0.0705	0.155	0.212	0.0799	0.00617	3.02	2.05	3.49	2.89	2.8	3.13	2.84	2.21
O=C(Nc1c[nH]nc1-c1nc2cc(CN3CCOCC3)ccc2[nH]1)NC1CC1 [AT9283]	241	100	777	344	414	1100	456	250	0.0255	0.00681	0.0125	0.0159	0.0418	0.00789	0.0596	0.00945	1.97	1.58	2.74	1.86	2.22	2.63	2.1	2.05
Cc1ccc(NC(=O)c2cccc(C(C)(C)C#N)c2)cc1Nc1ccc2ncn(C)c(=O)c2c1 [AZ628]	> 10000	> 10000	> 10000	2710	4380	> 10000	4670	4500	0.706	0.719	0.928	0.276	0.239	0.572	0.425	0.101	3.42	3.21	3.97	2.84	3.16	3.3	2.48	3.37
Cc1cc(Nc2nc(N[C@@H](C)c3ccc(F)cc3)c(C#N)cc2F)n[nH]1 [AZ 960]	1230	259	3300	1070	628	1680	1840	789	0.0819	0.00178	0.391	0.129	0.0231	0.252	0.133	0.00541	2.51	1.57	2.86	2.48	2.15	2.5	2.44	2.52
CNC(=O)c1cccc(-c2ccc3c(N4CCOC[C@@H]4C)nc(N4CCOC[C@@H]4C)nc3n2)c1 [AZD2014]	573	23.6	936	120	246	364	145	135	0.0959	0.0673	0.229	0.0767	0.0604	0.177	0.108	0.0166	2.29	1.18	2.91	1.61	1.86	2.12	1.67	1.88
COc1cc(CCc2cc(NC(=O)c3ccc(N4C[C@@H](C)N[C@@H](C)C4)cc3)n[nH]2)cc(OC)c1 [AZD4547]	> 10000	7220	> 10000	2380	1600	5180	9570	9970	0.9	0.202	0.877	0.165	0.222	0.256	0.51	0.68	3.57	3.17	3.96	2.69	2.59	3.1	3.11	5.09
Cc1ncc(-c2ccnc(Nc3ccc(S(C)(=O)=O)cc3)n2)n1C(C)C [AZD5438]	910	186	1230	654	1640	1480	759	258	0.0207	0.00317	0.00858	0.0146	0.131	0.0183	0.142	0.00721	2.6	1.66	2.44	2.39	2.97	2.45	2.49	2.19
Cn1cnc2c(F)c(Nc3ccc(Br)cc3Cl)c(C(=O)NOCCO)cc21 [AZD6244 (Selumetinib)]	3950	1140	> 10000	3000	1660	> 10000	3050	> 10000	0.381	0.371	0.59	0.371	0.23	0.664	0.419	0.728	2.75	2.41	3.06	2.59	2.51	2.88	2.45	4
NC(=O)Nc1cc(-c2cccc(F)c2)sc1C(=O)N[C@H]1CCCNC1 [AZD7762]	175	34	308	17.3	156	408	68.5	81.8	0.0526	0.00636	0.0492	0.0318	0.00629	0.00737	0.0208	0.00565	1.82	1.1	2.53	0.873	1.78	2.07	1.39	2.1
COc1ccc(-c2ccc3c(N4CCOC[C@@H]4C)nc(N4CCOC[C@@H]4C)nc3n2)cc1CO [AZD8055]	171	9.59	370	41.5	119	110	85.1	69.1	0.109	0.00631	0.229	0.0903	0.0607	0.163	0.0959	0.00497	1.76	0.809	2.4	1.25	1.48	1.62	1.48	1.29
Cc1cc(C(=O)NOCCO)c(Nc2ccc(I)cc2F)n(C)c1=O [AZD8330]	385	57.3	> 10000	140	134	865	123	> 10000	0.281	0.31	0.789	0.299	0.209	0.386	0.317	0.527	2.04	1.78	3.63	1.69	1.73	2.36	1.74	3.95
CNC(=O)CN1CCC(Oc2cc3c(Nc4cccc(Cl)c4F)ncnc3cc2OC)CC1 [AZD8931]	1150	> 10000	> 10000	609	> 10000	> 10000	1210	> 10000	0.336	0.474	0.994	0.323	0.576	0.696	0.333	0.785	2.32	2.67	4.39	2.08	2.86	3.06	2.35	3.56
CN(C)C/C=C/C(=O)Nc1cc2c(Nc3ccc(F)c(Cl)c3)ncnc2cc1O[C@H]1CCOC1 [Afatinib (BIBW2992)]	298	1460	2860	162	673	1340	157	2610	0.0284	0.00665	0.00814	0.000546	0.047	0.0794	0.0844	0.00799	1.94	2.26	2.87	1.71	2.18	2.37	1.73	3.72
S=C(NCc1ccc2c(c1)OCO2)N1CCN(c2ncnc3c2oc2ccccc23)CC1 [Amuvatinib (MP-470)]	> 10000	686	3140	2630	> 10000	1560	4830	2680	0.527	0.104	0.103	0.113	0.832	0.0586	0.28	0.0651	3.25	2.22	3.63	2.87	3.74	2.63	2.82	3.73
S=C(NCc1ccc2c(c1)OCO2)N1CCN(c2ncnc3c2oc2ccccc23)CC1 [Amuvatinib (MP-470)_R2]	> 10000	8.25	4190	2420	> 10000	1560	2270	2570	0.578	0.0372	0.131	0.151	0.749	0.0284	0.198	0.0813	3.38	1.54	3.12	2.69	3.34	2.51	2.19	3.43
